In US8153390B2, “FRET-based binding assay” (Roche Palo Alto LLC, priority 2009, dated 2012):

Tests used:
BTK = target: T1, BTK (Homo sapiens, UniProt Q06187); assay: Enzymatic assay for BTK (Caliper, peptide substrate); format: biochemical; conditions: 5 nM BTK, 100 μM ATP; for IC50: […] peptide substrate, read-out: Enzyme IC50
T1 construct: mixed with 26 μL of purified full length BTK (final concentration of 5 nM); purchased Invitrogen (Carlsbad, Calif.)

BTK-Btn [1] = target: T2, BTK-Btn (Homo sapiens, UniProt Q06187); assay: TR-FRET competition binding assay, BTK-Btn with tracer AF647-staur; conditions: read-out: FRET IC50, 0.5 nM BTK-Btn, 0.5 nM Eu-strept
T2 sequence (Q06187 whole entry): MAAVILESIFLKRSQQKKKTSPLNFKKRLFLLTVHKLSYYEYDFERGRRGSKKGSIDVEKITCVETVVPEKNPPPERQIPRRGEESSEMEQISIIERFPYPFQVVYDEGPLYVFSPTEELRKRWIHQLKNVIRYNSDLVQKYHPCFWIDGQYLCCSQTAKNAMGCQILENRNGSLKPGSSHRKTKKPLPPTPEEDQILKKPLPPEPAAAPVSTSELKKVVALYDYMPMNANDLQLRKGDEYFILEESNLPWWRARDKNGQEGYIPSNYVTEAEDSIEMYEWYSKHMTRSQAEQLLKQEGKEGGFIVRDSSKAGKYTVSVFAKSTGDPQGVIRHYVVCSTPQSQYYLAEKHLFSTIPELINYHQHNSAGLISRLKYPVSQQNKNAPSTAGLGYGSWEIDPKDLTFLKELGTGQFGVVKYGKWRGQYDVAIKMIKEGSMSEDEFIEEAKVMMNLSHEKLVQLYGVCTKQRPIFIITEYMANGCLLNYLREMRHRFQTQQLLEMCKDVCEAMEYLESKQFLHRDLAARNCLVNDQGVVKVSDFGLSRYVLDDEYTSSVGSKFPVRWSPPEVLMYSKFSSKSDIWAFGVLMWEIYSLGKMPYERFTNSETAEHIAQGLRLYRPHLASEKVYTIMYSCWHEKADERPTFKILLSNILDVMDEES

BTK-Btn [2] = target: T2, BTK-Btn; assay: TR-FRET competition binding assay, BTK-Btn with tracer TR 178 (low tracer / low kinase); parameters: 6xHis (N); made in house; host or cells: Sf-9 insect cells (baculovirus)
[3] = 0.05 nM BTK-Btn and 0.5 nM TR 178
[4] = 0.05 nM BTK-Btn and 0.5 nM TR 178, read-out: Low kinase IC50
[5] = 0.05 nM TR 178 and 0.5 nM BTK-Btn
[6] = 0.05 nM TR 178 and 0.5 nM BTK-Btn, read-out: Low tracer IC50

T1 sequence (Q06187 whole entry): as above

Compound | Enzyme nH (hill slope of dose response curve) (BTK) | IC50 (BTK) [µM] | IC50 (BTK-Btn [1]) [µM] | Low kinase nH (BTK-Btn [2]; [3]) | IC50 (BTK-Btn [2]; [4]) [µM] | Low tracer nH (BTK-Btn [2]; [5]) | IC50 (BTK-Btn [2]; [6]) [µM]
N#CC(C#N)=Cc1cc(O)c(O)c(O)c1 [Tyrphostin 25] | 0.6 ± 0.1 | > 100 | 48 ± 15 | 0.8 ± 0.1 | 130 ± 10 | 0.6 ± 0.2 | 45 ± 9
CC(C)(C)n1nc(-c2ccc(Cl)cc2)c2c(N)ncnc21 [PP2] | 1.1 ± 0.1 |  |  | 1.8 ± 0.1 |  | 0.9 ± 0.1 | 
Nc1ncnc2c1ncn2[C@@H]1O[C@H](COP(=O)(O)OP(=O)(O)O)[C@@H](O)[C@H]1O [ADP] | 1.0 ± 0.1 | > 100 | 46 ± 7 | 0.9 ± 0.1 | 200 ± 40 | 0.7 ± 0.2 | 40 ± 11
CC(O)=C(C#N)C(=O)Nc1cc(Br)ccc1Br [LFM-A13, alpha-cyano-beta-hydroxy-beta-methyl-N-(2,5-dibromophenyl)propenamide] | 1.1 ± 0.1 |  |  | 1.3 ± 0.1 |  | 0.6 ± 0.2 | 
